From patent US9049865B2, “Use of fungicidal active substances for controlling mycoses on plants of the palm family” (Bayer Intellectual Property GmbH, priority 2010, dated 2015) come the findings set out here.

Values after ≈ are worked out from the molar mass of the structure shown. Values joined by “and” are separate entries in the source; they are usually repeats but may differ in a detail not shown here. Identical values can stand only once. Like-named read-outs stand apart in the source and are kept apart here.

For this test, the system named is Ganoderma boninense. Kind of test: Microtiter plate growth test of Ganoderma boninense mycelium in potato-dextrose broth, absorption by photometer. To be noted: for EC50: Ganoderma boninense; for efficacy in controlling basal stem rot (BSR) disease, in words: verbal assessment of the EC50 data. In kind it is cell-based. The procedure: • 1. Culturing of the isolates on potato-dextrose agar (PDA) • 2. Preparation of a liquid potato-dextrose broth (PDB) as inoculum • For the development of the mycelium, 10 small pieces of the mycelium were transferred into 200 ml of the liquid potato-dextrose broth (PDB) and cultured for 7 days in a greenhouse cabinet at 26° C. • The mycelium was isolated, transferred into 200 ml of fresh liquid potato-dextrose broth supplemented with 25 mg/l enrofloxacin and comminuted using a homogenizer (5 seconds, Ultra Turrax). Thereafter this mycelial suspension was adjusted to two mycelial densities: • Inoculum A: “High mycelial density” • Homogenized mycelial suspension made up to 400 ml with PDB+enrofloxacin • Inoculum B: “Low mycelial density” • 100 ml of inoculum A made up to 400 ml with PDB+enrofloxacin • 3. Microtiter plate test: • Concentration range from 0.0-0.0064-0.032-0.16-4-20 to 100 ppm for each fungicide (active component) • Fungicide and inoculum were distributed using an automatic dispenser • 4. Evaluation (growth determination): • This is carried out every 2 days (1st evaluation after 4 days) by measuring the absorption over 13 days, using a photometer. II. Results
EC50 & (MEC50): Fungicide concentration at which the fungal growth is reduced by 50%: […]

Setting [1] is: G. boninense, high mycelial density, after 6 days, single determinations.
[2] abbreviates: G. boninense, low mycelial density, after 13 days, single determinations.
Setting [3] is: 144 h, G. boninense, high mycelial density, after 6 days, single determinations, read-out: EC50 data.
Where [4] appears, read: 144 h, G. boninense, high mycelial density, after 6 days, read-out: MEC50s (mean EC50 data).
Setting [5] is: 144 h, G. boninense, low mycelial density, after 6 days, read-out: MEC50s (mean EC50 data).
Where [6] appears, read: 312 h, G. boninense, high mycelial density, after 13 days, read-out: MEC50s (mean EC50 data).
Setting [7] is: 312 h, G. boninense, low mycelial density, after 13 days, single determinations, read-out: EC50 data.
The mark [8] stands for this setting: 312 h, G. boninense, low mycelial density, after 13 days, read-out: MEC50s (mean EC50 data).
Setting [9] is: G. boninense, high mycelial density, after 13 days, single determinations.
Setting [10] is: G. boninense, low mycelial density, after 6 days, single determinations.
[11] abbreviates: 144 h, G. boninense, low mycelial density, after 6 days, single determinations, read-out: EC50 data.
The mark [12] stands for this setting: 312 h, G. boninense, high mycelial density, after 13 days, single determinations, read-out: EC50 data.

As usually defined, the EC50 is the concentration that produces a half-maximal response. Take `CC(C)(C)C(O)C(Oc1ccc(-c2ccccc2)cc1)n1cncn1` (stereo not drawn) [Bitertanol]: the “efficacy in controlling basal stem rot (BSR) disease, in words” value (“efficacy in controlling basal stem rot” for short) is listed as “similarly effective”. Besides, under setting [1], the EC50 data is 0.0518 mg/L and 0.0614 mg/L and 0.058 mg/L and 0.0542 mg/L and 0.0679 mg/L. Besides, the EC50 data under setting [2] is 0.1355 mg/L and 0.1360 mg/L and 0.1146 mg/L and 0.1235 mg/L and 0.1014 mg/L. Further, under setting [3], the EC50 was determined as 0.0801 µg/mL (≈ 0.237 µM). The half-maximal effective concentration (EC50) under setting [4] was found to be 0.062 µg/mL (≈ 0.184 µM). Also, the 50% effective concentration (EC50) under setting [5] was 0.061 µg/mL (≈ 0.181 µM). Moreover, the EC50 under setting [6] stood at 0.054 µg/mL (≈ 0.16 µM). The concentration for a half-maximal effect (EC50) under setting [7] was 0.118 µg/mL (≈ 0.35 µM). Besides, the EC50 under setting [8] came to 0.121 µg/mL (≈ 0.359 µM).
With `Cn1cc(C(=O)Nc2ccc(F)cc2-c2ccc(Cl)c(Cl)c2)c(C(F)F)n1` [Bixafen, N-(3′,4′-dichloro-5-fluoro-1,1′-biphenyl-2-yl)-3-(difluoromethyl)-1-methyl-1H-pyrazole-4-carboxamide], the EC50 reads like this: under setting [4], 0.07 µg/mL (≈ 0.169 µM); under setting [5], 0.027 µg/mL (≈ 0.0652 µM); under setting [6], 0.096 µg/mL (≈ 0.232 µM); under setting [8], 0.096 µg/mL (≈ 0.232 µM).
As for `CO/N=C(/C1=NOCCO1)c1ccccc1Oc1ncnc(Oc2ccccc2Cl)c1F` [Fluoxastrobin], the “efficacy in controlling basal stem rot” value is on record as “less effective”. Further, under setting [5], the EC50 came to 0.036 µg/mL (≈ 0.0785 µM). The EC50 under setting [8] worked out at 0.158 µg/mL (≈ 0.344 µM).
As for `O=c1c2cc(F)ccc2nc(-n2cncn2)n1-c1ccc(Cl)cc1Cl` [Fluquinconazole], the EC50 data under setting [9] is 0.0450 mg/L and 0.0443 mg/L and 0.0458 mg/L and 0.0352 mg/L and 0.0386 mg/L; the EC50 data under setting [10] is 0.0178 mg/L and 0.0228 mg/L and 0.0239 mg/L and 0.0224 mg/L and 0.022 mg/L; the EC50 data under setting [2] was 0.0532 mg/L and 0.0915 mg/L and 0.0656 mg/L and 0.0577 mg/L and 0.075 mg/L. Besides, the EC50 amounted to 0.034 µg/mL (≈ 0.0904 µM) under setting [4]; 0.0308 µg/mL (≈ 0.0819 µM) under setting [11]; 0.023 µg/mL (≈ 0.0611 µM) under setting [5]; 0.0393 µg/mL (≈ 0.104 µM) under setting [12]; 0.041 µg/mL (≈ 0.109 µM) under setting [6]; 0.0591 µg/mL (≈ 0.157 µM) under setting [7]. For the same compound, the EC50 under setting [8] was 0.066 µg/mL (≈ 0.175 µM).
Take `Cc1nn(C)c(F)c1C(=O)Nc1ccccc1C(C)CC(C)C` (stereo not drawn) [Penflufen, N-[2-(1,3-dimethylbutyl)phenyl]-5-fluoro-1,3-dimethyl-1H-pyrazole-4-carboxamide]: the EC50 data by setting is: under setting [1], 0.0098 mg/L and 0.0087 mg/L; under setting [10], 0.0065 mg/L (≈ 0.0205 µM). Further, the EC50 under setting [3] is 0.0076 µg/mL (≈ 0.0239 µM); the EC50 under setting [4] was 0.008 µg/mL (≈ 0.0252 µM); the concentration giving a half-maximal response (EC50) under setting [11] was 0.0064 µg/mL (≈ 0.0202 µM); the EC50 under setting [5] turned out to be 0.006 µg/mL (≈ 0.0189 µM); the EC50 under setting [6] is 0.022 µg/mL (≈ 0.0693 µM); the EC50 under setting [8] was found to be 0.015 µg/mL (≈ 0.0473 µM).
Regarding `CCCN(CCOc1c(Cl)cc(Cl)cc1Cl)C(=O)n1ccnc1` [Prochloraz], the EC50 data is 0.3566 mg/L and 0.5803 mg/L and 0.5515 mg/L and 0.6018 mg/L and 0.5704 mg/L under setting [10]; 0.6978 mg/L and 1.0994 mg/L and 0.7737 mg/L and 0.8261 mg/L and 1.1128 mg/L under setting [2]. In addition, the EC50 worked out at 0.497 µg/mL (≈ 1.32 µM) (144 h, read-out: EC50 data, G. boninense, low mycelial density, after 6 days, single determinations); 0.519 µg/mL (≈ 1.38 µM) (144 h, read-out: MEC50s (mean EC50 data), G. boninense, low mycelial density, after 6 days); 0.94 µg/mL (≈ 2.5 µM) (312 h, read-out: EC50 data, G. boninense, low mycelial density, after 13 days, single determinations); 0.895 µg/mL (≈ 2.38 µM) (312 h, read-out: MEC50s (mean EC50 data), G. boninense, low mycelial density, after 13 days).
Consider `OC(Cc1ccccc1Cl)(Cn1nc[nH]c1=S)C1(Cl)CC1` (stereo not drawn) [Prothioconazole], for which the “efficacy in controlling basal stem rot” value is given as “best activity”. Moreover, the EC50 data under setting [1] is 0.0069 mg/L and 0.0087 mg/L and 0.0117 mg/L and 0.0073 mg/L. Under setting [9], the EC50 data was 0.0084 mg/L and 0.0068 mg/L. Moreover, the EC50 under setting [3] was 0.0064 µg/mL (≈ 0.0186 µM). The EC50 under setting [4] was found to be 0.008 µg/mL (≈ 0.0232 µM). Moreover, the half-maximal effective concentration (EC50) under setting [5] came to 0.012 µg/mL (≈ 0.0349 µM). Besides, under setting [12], the EC50 was determined as 0.0064 µg/mL (≈ 0.0186 µM). Moreover, the EC50 under setting [6] came to 0.009 µg/mL (≈ 0.0261 µM). Also, the EC50 under setting [8] was 0.014 µg/mL (≈ 0.0407 µM).
For the compound `CC(C)(C)C(O)(CCc1ccc(Cl)cc1)Cn1cncn1` (stereo not drawn) [Tebuconazole], the “efficacy in controlling basal stem rot” value is given as “best activity”. Also, under setting [2], the EC50 data is 0.0065 mg/L and 0.0067 mg/L and 0.0072 mg/L. Under setting [3], the EC50 was 0.0064 µg/mL (≈ 0.0208 µM). Besides, the EC50 under setting [4] worked out at 0.006 µg/mL (≈ 0.0195 µM). Moreover, under setting [11], the EC50 turned out to be 0.0064 µg/mL (≈ 0.0208 µM). Under setting [5], the EC50 came to 0.006 µg/mL (≈ 0.0195 µM). Further, the EC50 under setting [6] worked out at 0.011 µg/mL (≈ 0.0357 µM). Moreover, the EC50 under setting [7] was 0.0086 µg/mL (≈ 0.0279 µM). The EC50 under setting [8] came to 0.007 µg/mL (≈ 0.0227 µM).
`CC(C)(C)C(O)C(Oc1ccc(Cl)cc1)n1cncn1` (stereo not drawn) [Triadimenol]: the “efficacy in controlling basal stem rot” value is listed as “similarly effective”. For the same compound, the EC50 data under setting [1] was 0.0446 mg/L and 0.0475 mg/L and 0.0712 mg/L and 0.0434 mg/L and 0.0767 mg/L. Besides, under setting [10], the EC50 data was 0.08 mg/L and 0.1062 mg/L and 0.1077 mg/L and 0.1076 mg/L and 0.0638 mg/L. Further, the EC50 data under setting [2] was 0.0963 mg/L and 0.0723 mg/L and 0.1064 mg/L and 0.1074 mg/L. Besides, the EC50 under setting [3] is 0.0386 µg/mL (≈ 0.131 µM). Besides, under setting [4], the EC50 was 0.052 µg/mL (≈ 0.176 µM). Further, the half-maximal effective concentration (EC50) under setting [11] turned out to be 0.106 µg/mL (≈ 0.359 µM). The EC50 under setting [5] was found to be 0.093 µg/mL (≈ 0.314 µM). In addition, under setting [6], the EC50 came to 0.06 µg/mL (≈ 0.203 µM). Further, under setting [7], the concentration for a half-maximal effect (EC50) is 0.103 µg/mL (≈ 0.349 µM). Further, the EC50 under setting [8] stood at 0.098 µg/mL (≈ 0.331 µM).
Consider `CON=C(C(=O)OC)c1ccccc1CON=C(C)c1cccc(C(F)(F)F)c1` [Trifloxystrobin], for which the “efficacy in controlling basal stem rot” value is reported as “outstanding efficacy”. For the same compound, the EC50 data under setting [9] is 0.0119 mg/L and 0.0081 mg/L and 0.0115 mg/L. In addition, the concentration for a half-maximal effect (EC50) under setting [3] is 0.0064 µg/mL (≈ 0.0157 µM). Under setting [4], the EC50 was 0.006 µg/mL (≈ 0.0147 µM). Moreover, the EC50 under setting [11] amounted to 0.0064 µg/mL (≈ 0.0157 µM). Under setting [5], the EC50 was determined as 0.006 µg/mL (≈ 0.0147 µM). For the same compound, the concentration giving a half-maximal response (EC50) under setting [12] was 0.0064 µg/mL (≈ 0.0157 µM). Further, the EC50 under setting [6] turned out to be 0.01 µg/mL (≈ 0.0245 µM). Further, the EC50 under setting [8] was 0.02 µg/mL (≈ 0.049 µM).
